Assay results taken from patent US20040219123A1, “Invert emulsions comprising DHEA” (GALDERMA RESEARCH & DEVELOPMENT, S.N.C., priority 2001, published 2004).

Assays:
[1] = Maximum solubility of DHEA in lipophilic excipients (12 h stirring with excess active, filtration, HPLC); assay type: physicochemical; settings: room temperature
Protocol: In Table 1 are various examples showing the low solubility of DHEA in a lipophilic phase:
These maximum solubilities of DHEA were measured after stirring for 12 h with a magnetic stirrer bar, at room temperature, with an excess of active ingredient in the excipient to be analyzed. The suspension is then filtered (1.2 μm) and then the filtrate is assayed by HPLC.
Above the concentration measured, there is recrystallization of the DHEA at room temperature.

[2] = cited from earlier work

C[C@]12CC[C@H](O)CC1=CC[C@@H]1[C@@H]2CC[C@]2(C)C(=O)CC[C@@H]12 [DHEA, 3-beta-hydroxyandrosteron-5-en-17-one]
Solubility (% w/w) ([1]; in Caprylic/capric triglycerides): 1.77% w/w | Solubility (% w/w) ([1]; in Cetearyl isononanoate): 0.83% w/w | Solubility (% w/w) ([1]; in Cyclomethicone): 0.04% w/w | Solubility (% w/w) ([1]; in Dimethicone): 0.17% w/w | Solubility (% w/w) ([1]; in Isopropyl palmitate): 1.37% w/w | Solubility (% w/w) ([1]; in Mineral oil): 1.00% w/w | Solubility (% w/w) ([1]; in Octyl palmitate): 1.00% w/w | Solubility (% w/w) ([1]; in Sesame oil): 1.40% w/w | Solubility (% w/w) ([1]; in Squalane): 0.10% w/w | maximum solubility in water [2]: 20 µg/mL
